Measurements: patent EP0551200A1, “Protein phosphatase inhibitors for use in therapy” (priority 1992, dated 1993)

System: Egr-1 protein
Experiment: Immunoprecipitation of 32P-labeled Egr-1 protein from Balb/c 3T3 cells
Assay type: cell-based, mouse
Settings: 2 h treatment; OA 0.5 µM, calyculin A 25 nM, 20% fetal calf serum
Protocol: Quiescent Balb/c 3T3 cells were labeled with [³²P]-orthophosphate and incubated with either 20% fetal calf serum or okadaic acid (0.5 µM) for 2 h as described in "Experimental Procedures" of Example 2. Egr-1 protein(s) was immunoprecipitated by anti-Egr-1 antibody (R5232) and subjected to 7.5% SDS-PAGE. The dried SDS-gel was autoradiographed. lanes C, S and OA show immunoprecipitated proteins derived from quiescent cells, serum and okadaic acid-treated cells respectively. • (B). The immunoprecipitated Egr-1 protein(s) from okadaic acid-treated [³²P]-labeled Balb/c 3T3 cells was also subjected to 2-D gel electrophoresis as previously described (Guy et al, J. Biol. Chem. 266, 14343-14352, 1991). […]
The radioactivity of the in vitro transcribed RNA was determined and equal amounts of radioactive RNA from uninduced and okadaic acid treated cells were used to hybridize to specific plasmid (5 µg) previously applied to a nylon matrix with the aid of a slot blot applicator (Schleicher & Schuell, Keene, NH, US). […]
Okadaic acid or calyculin A was then added to a final concentration of 0.5 µM or 25 nM respectively and incubated for another 2 h. […] The immunoprecipitated proteins were analyzed by 7.5% SDS-PAGE as well as by two-dimensional gel electrophoresis as described previously (Guy et al, J. Biol. Chem. 266, 14343-14352, 1991). […]

With C=C1[C@@H](O)[C@@H]2O[C@]3(CC[C@H](/C=C/[C@@H](C)[C@@H]4CC(C)=C[C@@]5(O[C@H](C[C@@](C)(O)C(=O)O)CC[C@H]5O)O4)O3)CC[C@H]2O[C@@H]1[C@@H](O)C[C@H](C)[C@H]1O[C@@]2(CCCCO2)CC[C@H]1C [okadaic acid] the “Egr-1 phosphoprotein immunoprecipitated (in words)” value was “high cellular concentration of the about 100 kDa Egr-1 phosphoprotein”.
